Measured values reported in article PMC4468002 (Bioorganic & medicinal chemistry, 2015).

Legend:
human D3R = human D3R (Homo sapiens, UniProt P35462); test: Radioligand competition binding, [3H]N-methylspiperone, D3R; conditions: ratio of Ki values; Table 2
[1] = Phase I metabolic stability in mouse liver microsomes with NADPH; format: in vitro ADME; conditions: 60 min incubation, 1 μM compound

Sequence of human D3R (P35462 whole entry): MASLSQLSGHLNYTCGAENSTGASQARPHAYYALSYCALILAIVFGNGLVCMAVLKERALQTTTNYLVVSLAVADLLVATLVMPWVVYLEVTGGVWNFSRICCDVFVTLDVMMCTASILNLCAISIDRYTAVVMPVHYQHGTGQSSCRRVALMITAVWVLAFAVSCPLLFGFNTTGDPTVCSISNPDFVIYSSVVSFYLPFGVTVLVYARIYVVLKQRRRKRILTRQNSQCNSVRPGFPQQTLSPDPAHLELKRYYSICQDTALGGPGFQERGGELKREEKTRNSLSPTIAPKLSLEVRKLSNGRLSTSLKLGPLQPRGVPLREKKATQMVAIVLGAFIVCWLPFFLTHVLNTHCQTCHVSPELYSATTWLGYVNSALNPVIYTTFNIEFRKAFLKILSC

Receptor selectivity D2/D3 (human D3R)	Receptor selectivity D4/D3 (human D3R)	percent original compound remaining [1] [%]	Substance
6.3	40		5-(4-(4-(4-(2-Methoxyphenyl)piperazin-1-yl)butyl)-1H-1,2,3-triazol-1-yl)quinoline [9d]
14		26	1-(4-(2,3-Dichlorophenyl)piperazin-1-yl)-4-(4-(quinolin-3-yl)-1H-1,2,3-triazol-1-yl)butan-2-ol [17b]
